Patent publication US8420859B2, “Formulations” (Syngenta Limited, priority 2006, dated 2013)
Blank lines part the entries; values can stand above or below the molecule they belong to.

How the values were obtained:
[1] = Flash point, Seta flash 3 closed cup tester; assay type: physicochemical; conditions: Seta flash 3 closed cup tester model 30000-0
Description: The flammability of solvents is of concern to minimise risk during storage, transport and use. Typically the risk is assessed by measuring the flash point of the solvent. […] The measured value was 108° C.

skin = assay: SIFT (Skin Integrity Function Test): electrical resistance of skin after exposure
From the text: Skin irritation and damage can be measured most easily by a well-known SIFT (Skin Integrity Function Test) procedure measuring the electrical resistance of the skin after exposure to the material of interest and comparing this to the electrical resistance of untreated skin. […] SLS is used in shampoo and toothpaste formulations and is a suitable control because much is known about its irritating behaviour on human skin and eye tissue.

[2] = test system: amaranthus retroflexus (AMARE), alopecurus myosuorides (ALOMY), chenopodium album (CHEAL) and digitaria sanguinalis (DIGSA); assay: Phytotoxic damage to young plants sprayed with solvent; assay type: in vivo; conditions: for Observed damage with solvent and Tween 20: solvent 1% w/w plus 0.5% Tween 20, 2500 litres per hectare
From the text: Formulations that are applied to crop plants can often lead to phytotoxic damage. This damage may take the form of the formation of necrotic spots where sprayed formulation has landed on leaf surfaces or it may take the form of chlorosis or larger scale damage to the plant such as dessication and death. In order to assess the safety of solvents to plant species they were sprayed at high usage rates and high water volumes onto very sensitive, young plants.
The plant species amaranthus retroflexus (AMARE), alopecurus myosuorides (ALOMY), chenopodium album (CHEAL) and digitaria sanguinalis (DIGSA) were grown from seed under glass house conditions until they reached the first leaf stage. A solvent was dissolved in distilled water at a rate of 1% w/w and sprayed onto the plants at a rate of 2500 litres per hectare using a laboratory track sprayer. The plants were maintained in the glasshouse for a period of 2 weeks in order to observe any effects on the plants. Untreated plants were grown and kept under the same conditions as a direct comparison to the treated samples. A second set of identical plants was also sprayed with the novel solvent however in this case 0.5% of the commercial surfactant Tween 20 (T) was also added to the spray solution. In this experiment control plants for comparison were also sprayed with 0.5% Tween 20 but not with the solvent. Plants were examined after 1, 2, 6, 7, 9 and 13 days to try to find evidence of damage to the treated plants. All experiments were carried out in duplicate.

[3] = Solubility of cyproconazole in solvent (saturated solution, HPLC); assay type: physicochemical
Description: A sample of a solvent (200 microlitres) was added to a 4 ml volume glass vial. The pesticide cyproconazole was added to the vial and shaken to allow thorough mixing. The vial was left to equilibrate at 25° C. for 24 hours after which time it was examined visually. If the solid had dissolved a further quantity of cyproconazole was added, the vial shaken and then left for another 24 hours. This process was repeated until a saturated solution had formed after which time the vial was left to equilibrate for one week. The glass vial was thoroughly shaken using a laboratory Whirlimixer™ (T) (Fisons Scientific Instruments Limited), once per day, during this period. After this time the sample was centrifuged, the supernatant was sampled and analysed by HPLC with reference to a known weight of pure cyproconazole, in order to determine the concentration of cyproconazole in solution.

daphnia = assay: Daphnia screening at 100 mg/l, immobility over 24 and 48 hours; assay type: in vivo; conditions: single concentration 100 mg/l, 18-19° C., four replicates; for EC50: 48 h
Description: Daphnia screening is commonly carried out to assess the inherent toxicity of chemicals. In this test five daphnia were placed in a beaker full of water held between 18 and 19° C. A lactamide chemical of interest was introduced to a concentration of 100 mg/l and the daphnia were monitored over 24 and 48 hours. Any daphnia which became immobile were recorded and the number was used for the assessment. If less than half of the daphnia were immobile after 48 hours the EC50 (48 hours) figure was classified as being >100 mg/l [otherwise, it would be less than or equal to 100 mg/l]. The lactamides of Table 6 were tested and their EC50 figures are tabulated (each experiment was replicated four times and in fact in all these tests none of the daphnia died): […]

[4] = solvent 1% w/w in distilled water, 2500 litres per hectare, first leaf stage plants, examined 1-13 days, duplicate
[5] = first leaf stage plants, examined 1-13 days, duplicate

flash point [1]: 108 °C
Electrical resistivity (skin; 1 % w/w): 8.04 kilo ohms
Electrical resistivity (skin; 10 % w/w): 7.72 kilo ohms
Molecule: CC(O)C(=O)N(C)C (stereo not drawn) [dimethyl lactamide, N,N-dimethyl lactamide]

Molecule: CCCCN(C)C(=O)C(C)O (stereo not drawn) [N-methyl-N-butyl lactamide]
Observed damage with solvent [2, 4]: None
Observed damage with solvent and Tween 20 [2, 5]: None
% cyproconazole in solution [3]: 33.0% w/w
EC50 (48 hours) (daphnia): >100 mg/L

Molecule: CC(O)C(=O)NCc1ccccc1 (stereo not drawn) [N-benzyl Lactamide]
Observed damage with solvent [2, 4]: None
Observed damage with solvent and Tween 20 [2, 5]: None

Molecule: CCN(CCO)C(=O)C(C)O (stereo not drawn) [N-ethyl-N-2-hydroxyethyl lactamide]
Observed damage with solvent [2, 4]: None
Observed damage with solvent and Tween 20 [2, 5]: None
% cyproconazole in solution [3]: 18.2% w/w
EC50 (48 hours) (daphnia): >100 mg/L

Molecule: CCCN(C)C(=O)C(C)O (stereo not drawn) [N-methyl-N-propyl lactamide]
Observed damage with solvent [2, 4]: None
Observed damage with solvent and Tween 20 [2, 5]: None
% cyproconazole in solution [3]: 27.3% w/w
EC50 (48 hours) (daphnia): >100 mg/L

Molecule: CC(C)NC(=O)C(C)O (stereo not drawn) [N-isopropyl Lactamide]
Observed damage with solvent [2, 4]: None
Observed damage with solvent and Tween 20 [2, 5]: None

Molecule: CC(O)C(=O)NN1CCOCC1 (stereo not drawn) [N-morpholinyl lactamide]
Observed damage with solvent [2, 4]: None
Observed damage with solvent and Tween 20 [2, 5]: None
EC50 (daphnia): > 100 µg/mL

Molecule: CCC(CC)NC(=O)C(C)O (stereo not drawn) [N-(1-ethylpropyl) lactamide]
EC50 (daphnia): > 100 µg/mL

Molecule: CCC(CO)NC(=O)C(C)O (stereo not drawn) [N-1-ethyl-2-hydroxyethyl lactamide]
Observed damage with solvent and Tween 20 [2, 5]: None

Molecule: N-1-hyroxyethylbutyl lactamide
Observed damage with solvent [2, 4]: None
Observed damage with solvent and Tween 20 [2, 5]: None

Molecule: CCN(CC)CCCNC(=O)C(C)O (stereo not drawn) [3-diethylamino propyl lactamide]
Observed damage with solvent [2, 4]: None

Molecule: CCCCC(CC)CNC(=O)C(C)O (stereo not drawn) [N-(2-ethylhexyl) lactamide]
EC50 (daphnia): > 100 µg/mL

Molecule: CCCCCCCCCCCCOS(=O)(=O)[O-].[Na+] [SLS, sodium lauryl sulphate]
Electrical resistivity (skin; 0.5% w/w aqueous solution, Table 2, untreated control 8.00): 2.03 kilo ohms
Electrical resistivity (skin; 1.0% solution, Table 2, untreated control 8.00): 1.84 kilo ohms
Electrical resistivity (skin; 10.0% solution, Table 2, untreated control 8.00): 0.91 kilo ohms
Electrical resistivity (skin; 10% w/w solution, skin post-treatment, mean of five measurements, untreated control 8.00): 0.91 kilo ohms

Molecule: CC(C)CC(C)NC(=O)C(C)O (stereo not drawn) [N-1,3-dimethyl butyl lactamide]
Observed damage with solvent [2, 4]: None
Observed damage with solvent and Tween 20 [2, 5]: None

Molecule: CCC(C)NC(=O)C(C)O (stereo not drawn) [N-sec-butyl lactamide]
Observed damage with solvent [2, 4]: None
Observed damage with solvent and Tween 20 [2, 5]: None

Molecule: CC(C)CNC(=O)C(C)O (stereo not drawn) [N-isobutyl lactamide]
Observed damage with solvent [2, 4]: None
Observed damage with solvent and Tween 20 [2, 5]: None

Molecule: C=CCNC(=O)C(C)O (stereo not drawn) [N-allyl lactamide]
Observed damage with solvent [2, 4]: None
Observed damage with solvent and Tween 20 [2, 5]: None
EC50 (daphnia): > 100 µg/mL

Molecule: CC(O)C(=O)NN1CCCC1 (stereo not drawn) [N-pyrrolidinyl lactamide]
Observed damage with solvent [2, 4]: None
Observed damage with solvent and Tween 20 [2, 5]: None

Molecule: CC(O)C(=O)NCCCN1CCOCC1 (stereo not drawn) [N-propyl morpholynyl lactamide]
Observed damage with solvent [2, 4]: None
Observed damage with solvent and Tween 20 [2, 5]: None

Molecule: N-2-hydroxyethyl piperidinyl lactamide
Observed damage with solvent [2, 4]: None
Observed damage with solvent and Tween 20 [2, 5]: None
% cyproconazole in solution [3]: 19.3% w/w
EC50 (48 hours) (daphnia): >100 mg/L

Molecule: CC(O)C(=O)NCCO (stereo not drawn) [N-2-hydroxyethyl lactamide]
Observed damage with solvent ([2]; in vivo): None

Molecule: CCNC(=O)C(C)O (stereo not drawn) [N-ethyl lactamide]
Observed damage with solvent [2, 4]: None
Observed damage with solvent and Tween 20 [2, 5]: None

Molecule: CC(O)C(=O)N(CCO)Cc1ccccc1 (stereo not drawn) [N-hydroxyethyl-N-benzyl lactamide]
Observed damage with solvent [2, 4]: None
Observed damage with solvent and Tween 20 [2, 5]: None
% cyproconazole in solution [3]: 25.0% w/w
EC50 (48 hours) (daphnia): >100 mg/L

% cyproconazole in solution [3]: 10.5% w/w
Molecule: CC(C)CCC(C)NC(=O)C(C)O (stereo not drawn) [N-1,4-dimethylpentyl lactamide]
